Source: patent publication US8835440B2, “Cyclic pyrimidin-4-carboxamides as CCR2 receptor antagonists for treatment of inflammation, asthma and COPD” (Boehringer Ingelheim International GmbH, priority 2008, dated 2014)

Biological target: T1, CCR2 (Homo sapiens, UniProt P41597)
T1 construct: Membranes were prepared from THP-1 cells; endogenous in cells; host or cells: THP-1 cells (membrane preparation)
T1 sequence (P41597 1-360 isoform P41597-2): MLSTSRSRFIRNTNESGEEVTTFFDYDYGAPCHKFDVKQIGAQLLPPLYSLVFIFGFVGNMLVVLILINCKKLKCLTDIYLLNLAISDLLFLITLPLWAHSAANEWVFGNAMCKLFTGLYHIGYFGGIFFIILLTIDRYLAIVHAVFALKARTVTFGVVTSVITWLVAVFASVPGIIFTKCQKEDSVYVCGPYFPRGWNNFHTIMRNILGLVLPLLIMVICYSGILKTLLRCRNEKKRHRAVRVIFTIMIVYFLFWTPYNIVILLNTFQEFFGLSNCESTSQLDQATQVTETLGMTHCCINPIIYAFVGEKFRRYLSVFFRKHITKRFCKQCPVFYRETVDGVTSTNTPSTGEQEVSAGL
Assay: CCR2 receptor membrane binding assay ([125I]MCP-1, THP-1 cell membranes, SPA beads)
Settings: for remaining activity at 10 µM / CCR2 % ctrl @ 10 μM: @ 10 μM test compound, THP-1 membranes; for remaining activity at 10 µM: read-out: CCR2 % ctrl @ 10 μM; for Ki: dissociation constant hKi, [125I]MCP-1 binding to THP-1 membranes
Description: The above exemplary substances have been tested for binding to CCR2 using a binding assay as outlined herein below:
THP-1 cells (human acute monocytic leukaemia cells) were cultured under standardized conditions at 37° C. and 5% CO2 in a humidified incubator. THP-1 cells were cultivated in RPMI 1640 medium (Gibco 21875) containing 1% MEM-NEAA (Gibso 11140) 2 mM L-glutamine, 1.5 g/L sodium bicarbonate, 4.5 g/L glucose, 10 mM HEPES and 1.0 mM sodium pyruvate, 90%; 10% fetal calf serum (FCS Gibco 10500-064).
Membranes were prepared from THP-1 cells. THP-1 cells were centrifuged at 300×g at 4° C. for 10 min. The cell pellet was resuspendet in Phosphate Buffer Saline (PBS, including 10 μM Pefabloc and a protease inhibitor mix ‘complete’, Boehringer Mannheim (1 tablet/50 ml)), to a concentration of […]. The membrane preparation was performed by disrupting the cells by nitrogen […] (at 50 bar, for 1 h) in a “Nitrogen Bombe” (Parr Instrument). Cell debris was removed by centrifugation (800×g at 4° C., 1 min). The supernatant was centrifuged at 80000×g, 4° C. for 30 min to sediment the cell membranes. Usually 50 mg of protein (Bradford assay) were yielded from 1×10E9 cells. The membranes were resuspendet in 25 mM HEPES, 25 mM MgCl2, 1 mM CaCl2, 10% Glycerine for storage in aliquots at −80° C. in 25 mM HEPES, 25 mM MgCl2, 1 mM CaCl2, 10% Glycerine and stored at −80° C.
Receptor Membrane Binding Assay:
Perkin Elmer NEX 332 Jod 125 MCP-1, Stock: 2200 Ci/mmol solved in 2000 μl assay buffer, stored at −20° C. THP-1 membrane were adjusted with 25 mM HEPES, pH 7.2; 5 mM MgCl2; 0.5 mM CaCl2; 0.2% BSA assay buffer to a concentration of […]. Amersham Biosciences PVT-WGA Beads (RPNQ0001) were adjusted with assay buffer to a concentration of 0.24 mg/30 μl. For preparation of the membrane-bead-suspension membranes and beads were incubated for 30 min at RT under rotation (60 rpm) with a ratio of 1:2. Test compounds dissolved in 100% DMSO to a concentration of 10 mM and are further diluted with 100% DMSO to 1 mM. All additional compound dilutions were obtained with assay buffer, final 1% DMSO. Compounds, membrane-bead-suspension and [125I]MCP-1 (ca. 25000 cpm/10 μl) were incubated. Bound radioactivity was determined by scintillation counter after 8 h. Determination of affinity of test compounds (dissociation constant hKi) is calculated by iterative fitting of experimental data using the “easy sys” program, which is based on law of mass action (Schittkowski K. (1994), Numerische Mathematik, Vol. 68, 129-142).

remaining activity at 10 µM [%]	Ki [nM]	CCR2 % ctrl @ 10 μM [% ctrl]	Structure (SMILES)
29	770	–	Cc1nc(NC2CCCC(c3ccccc3)C2)c(C)c(C(=O)N2CCC(N3CCC(NS(C)(=O)=O)CC3)CC2)n1 (centres unmarked) [Example 89]
10	127	–	Cc1nc(NCC2COc3ccccc3C2)c(C)c(C(=O)N2CCC(N3CCC(NS(C)(=O)=O)CC3)CC2)n1 (centres unmarked) [Example 90]
23	236	–	Cc1nc(NCCc2ccc(Cl)c(Cl)c2)c(C)c(C(=O)N2CCC(N3CCC(O)CC3)CC2)n1 [Example 91]
14	175	–	Cc1nc(NCc2ccc(Cl)c(Cl)c2)c(C)c(C(=O)N2CCC(N3CCC(O)CC3)CC2)n1 [Example 92]
6	123	–	CNC(=O)C1CCN(C2CCN(C(=O)c3ncnc(NCC4CCN(c5ccccc5)C4)c3C)CC2)CC1 (centres unmarked) [Example 93]
8	211	–	COC1CCN(C2CCN(C(=O)c3ncnc(NCc4ccc(C(C)C)cc4)c3C)CC2)CC1 [Example 94]
2	170	–	COC1CCN(C2CCN(C(=O)c3ncnc(NCc4ccc(Cl)c(F)c4)c3C)CC2)CC1 [Example 95]
21	939	–	COC1CCN(C2CCN(C(=O)c3ncnc(NCC4CCN(c5ccccc5)CC4)c3C)CC2)CC1 [Example 96]
17	665	–	COC1CCN(C2CCN(C(=O)c3ncnc(NCC4CCCN(c5ccccc5)C4)c3C)CC2)CC1 (centres unmarked) [Example 97]
2	214	–	COC1CCN(C2CCN(C(=O)c3ncnc(NCc4ccc(C)c(Cl)c4)c3C)CC2)CC1 [Example 98]
32	1830	–	Cc1c(NCCc2ccccc2)ncnc1C(=O)N1CCC(N2CCC(O)CC2)CC1 [Example 99]
18	395	–	Cc1c(NCc2cccc(-c3ccccc3)c2)ncnc1C(=O)N1CCC(N2CCCC(O)C2)CC1 (centres unmarked) [Example 100]
35	986	–	Cc1c(NCc2ccc(-c3ccccc3)cc2)ncnc1C(=O)N1CCC(N2CCC(O)CC2)CC1 [Example 101]
15	224	–	Cc1c(NCc2cccc(-c3ccccc3)c2)ncnc1C(=O)N1CCC(N2CCC(O)CC2)CC1 [Example 102]
30	1610	–	O=C(c1cc(NCc2ccc(-c3ccccc3)cc2)ncn1)N1CCC(N2CCCC(O)C2)CC1 (centres unmarked) [Example 103]
–	617	31	Cc1ccc(CNc2ncnc(C(=O)N3CCC(N4CCCCC4)CC3)c2C)cc1F [Example 104]
31	687	–	COc1ccc(CCNc2ncnc(C(=O)N3CCC(N4CCC(O)CC4)CC3)c2C)cc1Cl [Example 105]
13	405	–	Cc1c(NCCc2ccc(C(C)C)cc2)ncnc1C(=O)N1CCC(N2CCC(O)CC2)CC1 [Example 106]
12	232	–	Cc1c(NCc2ccc(Cl)c(Cl)c2)ncnc1C(=O)N1CCC(N2CCOCC2)CC1 [Example 107]
20	627	–	Cc1c(NCC2CCCCC2)ncnc1C(=O)N1CCC(N2CCC(O)CC2)CC1 [Example 108]
11	213	–	Cc1c(NCc2ccc(Cl)c(Cl)c2)ncnc1C(=O)N1CCC(N2CCC(O)CC2)CC1 [Example 109]
28	527	–	Cc1c(NCc2ccc(Cl)cc2)ncnc1C(=O)N1CCC(N2CCC(O)CC2)CC1 [Example 110]
27	464	–	Cc1c(NCc2ccc(F)c(Cl)c2)ncnc1C(=O)N1CCC(N2CCC(O)CC2)CC1 [Example 111]

remaining activity at 10 µM [%]	Ki [nM]	CCR2 % ctrl @ 10 μM [% ctrl]	Structure (SMILES)
21	378	–	Cc1c(NCCc2ccc(C(C)(C)C)cc2)ncnc1C(=O)N1CCC(N2CCC(O)CC2)CC1 [Example 112]
46	3310	–	Cc1c(NCC2CCN(c3ccccc3)CC2)ncnc1C(=O)N1CCC(N2CCC(O)CC2)CC1 [Example 113]
8	62	–	Cc1c(NCC2CCCC(c3ccccc3)C2)ncnc1C(=O)N1CCC(N2CCC(O)CC2)CC1 (centres unmarked) [Example 114]
33	847	–	Cc1c(NCCc2ccc(F)c(F)c2)ncnc1C(=O)N1CCC(N2CCC(O)CC2)CC1 [Example 115]
16	198	–	Cc1c(NCc2ccc(C(F)(F)F)c(Cl)c2)ncnc1C(=O)N1CCC(N2CCC(O)CC2)CC1 [Example 116]
19	285	–	Cc1c(NCc2ccc(Cl)c(F)c2)ncnc1C(=O)N1CCC(N2CCC(O)CC2)CC1 [Example 117]
41	2160	–	Cc1cc(CNc2ncnc(C(=O)N3CCC(N4CCC(O)CC4)CC3)c2C)ccc1F [Example 118]
–	1030	37	COc1ccc(CCNc2ncnc(C(=O)N3CCC(N4CCC(O)CC4)CC3)c2C)cc1Cl [Example 119]
30	499	–	Cc1ccc(CNc2ncnc(C(=O)N3CCC(N4CCC(O)CC4)CC3)c2C)cc1F [Example 120]
15	147	–	Cc1c(NCC2CCC(c3ccccc3)CC2)ncnc1C(=O)N1CCC(N2CCC(O)CC2)CC1 (centres unmarked) [Example 121]
23	415	–	Cc1c(NCCc2cccc(Cl)c2)ncnc1C(=O)N1CCC(N2CCC(O)CC2)CC1 [Example 122]
26	542	–	Cc1c(NCc2cccc(Cl)c2)ncnc1C(=O)N1CCC(N2CCC(O)CC2)CC1 [Example 123]
20	361	–	Cc1c(NCCc2ccc(Cl)cc2)ncnc1C(=O)N1CCC(N2CCC(O)CC2)CC1 [Example 124]
25	446	–	Cc1c(NCc2ccc(Cl)c(C(F)(F)F)c2)ncnc1C(=O)N1CCC(N2CCC(O)CC2)CC1 [Example 125]
23	399	–	Cc1ccc(CCNc2ncnc(C(=O)N3CCC(N4CCC(O)CC4)CC3)c2C)cc1C [Example 126]
35	665	–	Cc1c(NCc2ccc(Cl)cc2)ncnc1C(=O)N1CCC(N2CCCCC2)CC1 [Example 127]
26	445	–	Cc1c(NCc2ccc(F)c(Cl)c2)ncnc1C(=O)N1CCC(N2CCCCC2)CC1 [Example 128]
21	336	–	Cc1c(NCCc2ccc(C(C)(C)C)cc2)ncnc1C(=O)N1CCC(N2CCCCC2)CC1 [Example 129]
50	4270	–	Cc1c(NCC2CCN(c3ccccc3)CC2)ncnc1C(=O)N1CCC(N2CCCCC2)CC1 [Example 130]
6	55	–	Cc1c(NCC2CCCC(c3ccccc3)C2)ncnc1C(=O)N1CCC(N2CCCCC2)CC1 (centres unmarked) [Example 131]
31	672	–	Cc1c(NCCc2ccc(F)c(F)c2)ncnc1C(=O)N1CCC(N2CCCCC2)CC1 [Example 132]
15	205	–	Cc1c(NCc2ccc(C(F)(F)F)c(Cl)c2)ncnc1C(=O)N1CCC(N2CCCCC2)CC1 [Example 133]
23	399	–	Cc1c(NCc2ccc(Cl)c(F)c2)ncnc1C(=O)N1CCC(N2CCCCC2)CC1 [Example 134]
